Square brackets hold non-standard residues; d marks the D form. pGlu = O=C1CC[C@@H](C(=O)O)N1
How the values were obtained:
heart of O. vulgaris = assay: Measurement of the heart beat activity of O. vulgaris (isolated cannulated heart); design: species or system Octopus vulgaris; conditions: for variation of the heart beat of O. vulgaris (heart rate and amplitude): 10^-5 M added to the chamber (FIG. 3)
Experimental: The heart beat activity of O. vulgaris was measured according to the method proposed by Morishita, et al. (Fumihiro Morishita, Biochem. Biophys. Res. Commun., 240, 354-358 (1997)). Specifically, the heart was taken from O. vulgaris and the atria were removed from the heart. A cannula was inserted from each atrium into the ventricle and was at the same time connected to a chamber (80 ml in volume) by tying with a cotton thread. The aorta was pinched to prevent leakage of liquid from the ventricle and was connected to a tension transducer. This completed preparation of the heart to serve as a specimen for the assay. Each cannula was adjusted to permit a 1 to 2 ml/min flow of artificial sea water (containing 0.1% glucose). Each of the analytes to be assayed was dissolved in 1 ml of the same artificial sea-water, and the resulting solution was injected into the heart through the cannulae. The variation of the heart beat was recorded.
As test compounds, Compound (1) isolated from the brains of O. vulgaris, Compound (2), and cGnRH-II, a vertebrate GnRH isolated from chickens and used to derive Compound (2) therefrom, were used.

[1] = system: Cells taken from the pituitary glands of quails; assay: Release of luteinizing hormone (LH) from cultured quail pituitary gland cells, radioimmunoassay; assay type: cell-based; conditions: final concentrations 0, 10^-9 to 10^-5 M, 4 hrs incubation, one-way ANOVA (FIG. 4)
Experimental: Cells taken from the pituitary glands of quails were inoculated onto a 24-well plate at 7.5×10^5 cells/well (substantially equivalent to two animals). The cells were then incubated for 3 days in a culture medium containing fetal calf serum. The cells were incubated for another 24 hrs in 1 ml serum-free medium. After the incubation period, the peptide solution was added to the culture medium to final concentrations of 0, 10^−9, 10^−8, 10^−7, 10^−6 and 10^−5 M, respectively, and the cultures were further incubated for 4 hrs. The supernatant was then collected from each culture. For each concentration, 5 samples were subjected to radioimmunoassay and measurements were taken. The data were statistically analyzed by one-way analysis of variance (ANOVA).

Substance | variation of the heart beat of O. vulgaris (heart of O. vulgaris; amount of Compound (1) corresponding to one specimen of O. vulgaris added to the chamber (FIG. 2)) | cardioactivity toward the heart beat of O. vulgaris, synthetic versus naturally-occurring peptide (heart of O. vulgaris; purified synthetic peptide of Example 3) | release of luteinizing hormone (LH) [1] | variation of the heart beat of O. vulgaris (heart rate and amplitude) (heart of O. vulgaris)
<Glu-Asn-Tyr-His-Phe-Ser-Asn-Gly-Trp-His-Pro-Gly-NH2 ([pGlu]NYHFSNGWHPG-NH2; listed as Octopus vulgaris) [Compound (1)] | enhanced the heart beat of O. vulgaris | same cardioactivity toward the heart beat of O. vulgaris as did the naturally-occurring peptide | significantly increased the release of luteinizing hormone (LH) | 
cGnRH-II: chicken-II-type GnRH, a vertebrate decapeptide GnRH isolated from chickens, used to derive Compound (2) ([pGlu]HWSHGWYPG-NH2; ends and bridges not checked; UniProt P68072 1-10, looked up) [reference compound] |  |  |  | did not have any effect on the heart rate or the amplitude of the heart beat of O. vulgaris
<Glu-Asn-Tyr-His-Trp-Ser-His-Gly-Trp-Tyr-Pro-Gly-NH2 ([pGlu]NYHWSHGWYPG-NH2; SMILES NC(=O)CNC(=O)[C@@H]1CCCN1C(=O)[C@H](Cc1ccc(O)cc1)NC(=O)[C@H](Cc1c[nH]c2ccccc12)NC(=O)CNC(=O)[C@H](Cc1c[nH]cn1)NC(=O)[C@H](CO)NC(=O)[C@H](Cc1c[nH]c2ccccc12)NC(=O)[C@H](Cc1c[nH]cn1)NC(=O)[C@H](Cc1ccc(O)cc1)NC(=O)[C@H](CC(N)=O)NC(=O)[C@@H]1CCC(=O)N1) [Compound (2), cGnRH-II with Asn-Tyr inserted between the first <Glu and the second His residues] |  |  |  | enhanced the heart beat of O. vulgaris by increasing both the heart rate and the amplitude of the heart beat
<Glu-His-Phe-Ser-Asn-Gly-Trp-His-Pro-Gly-NH2 ([pGlu]HFSNGWHPG-NH2; SMILES NC(=O)CNC(=O)[C@@H]1CCCN1C(=O)[C@H](Cc1c[nH]cn1)NC(=O)[C@H](Cc1c[nH]c2ccccc12)NC(=O)CNC(=O)[C@H](CC(N)=O)NC(=O)[C@H](CO)NC(=O)[C@H](Cc1ccccc1)NC(=O)[C@H](Cc1c[nH]cn1)NC(=O)[C@@H]1CCC(=O)N1; listed as Octopus vulgaris) [Compound (3), decapeptide obtained by deletion of amino acids 2 and 3 from the N-terminal region of Compound (1)] |  |  | increase the release of luteinizing hormone (LH) | 
